From article PMC3574796 (Future medicinal chemistry, 2012)

Columns and labels:
[1] = tested on: malaria parasite; conditions: cited from earlier work
[2] = tested on: P. falciparum parasites (DV morphology); experiment: Digestive vacuole phenotype, light microscopy of Giemsa-stained parasites; type: cell-based, Plasmodium falciparum; conditions: 3.3 µM compound

SMILES | Antimalarial activity [1] | DV phenotype [2]
Nc1cc(Cl)ccc1Cl [2,5-dichloroaniline] | without antimalarial activity | 
CC(C)C[C@H](NC(=O)[C@H]1O[C@@H]1C(=O)O)C(=O)NCCCCN=C(N)N [Compound E64, E64] |  | swollen and dark staining DV phenotype
